From patent publication US6855669B2, “Use of α,β unsaturated aliphatic aldehydes and ketones to inhibit potato tuber sprouting” (Washington State University Research Foundation, priority 2000, dated 2005)

Tests used:
[1] = tested on: Russet Burbank seed-tubers; test: Example 2: etiolated sprout development, tuber quality and soluble carbohydrates, Russet Burbank; type: in vivo, Solanum tuberosum; settings: 4.7 mmol/kg potato tubers, 25 days
Method: Methods: Ten-month-old Ranger Russet, Umatilla and Russet Burbank seed-tubers were taken from 4° C. storage and treated with trans-2-hexenal in 9.2-L glass desiccators as described in Example 1. The tubers were exposed to trans-2-hexenal for 0, 12 and 24 hours at 23° C. at a concentration of 4.7 mmol/kg potato tubers. Regardless of exposure time, all tubers remained enclosed in the chambers for the entire 24 hour period. This was accomplished by introducing the trans-2-hexenal at zero-time (into the 24 hour treatment desiccator) and after 12 hour incubation (into the 12 hour treatment desiccator) through a septum in the top of the closed desiccator. The treated tubers were planted into moistened peat/perlite/soil potting mix and placed in the dark at 24° C. to stimulate sprouting. The experiment was set up in a randomized complete block design (5 replicates) with treatments (3 cultivars×3 exposure times) arranged factorially. Effects of trans-2-hexenal exposure and cultivar on etiolated sprout development and tuber quality were assessed 25 days after removal from the 4° C. storage.

[2] = tested on: Russet Burbank and Ranger Russet seed-tubers; test: Example 5: sprout inhibition by C5 to C9 trans-2 aldehydes over prolonged storage (17 weeks); type: in vivo, Solanum tuberosum; settings: 0.5, 0.75 and 1.0 mmol/kg tuber, 24 hours; 17 weeks at 8° C., 95% RH
Method: (46° F.), 95% relative humidity (RH), for 17 weeks. As described more fully in Example 5, four-month-old tubers (previously stored at 4° C.) were treated (for 24 h) with different concentrations of the aldehydes in mid January. The treated tubers were then stored in the dark for 120 days (17 weeks).
Methods: Four-month-old Russet Burbank and Ranger Russet seed-tubers were taken from a 4° C. storage area and treated (Jan. 10, 2001) separately with 0, 0.5, 0.75 and 1.0 mmol/kg tuber of trans-2-pentenal, trans-2-hexenal, trans-2-heptenal, trans-2-octenal, and trans-2-nonenal in 3.9 L glass jars. The volume of inhibitor required to achieve the above rates was pipetted onto filter paper discs inside the lids of each jar. The concentration of inhibitors in the headspace of the jars was equal at 0.16 mmol/L. The tubers were enclosed in the jars and thus exposed to inhibitor vapor for 24 hours at 23° C. Control tubers were enclosed in a glass jar without any aldehyde. Following treatment, tubers were removed from the jars and placed at 8° C. (46° F.) (95% relative humidity) in the dark to sprout for 120 days (17 weeks). The experiment was set up in a randomized complete block design (5 replicates) with chemicals and concentrations arranged factorially. Effects of the aliphatic aldehydes on the development of etiolated sprouts were documented photographically and quantitatively (sprout number and fresh weight) after 120 days of storage.

Compound: CCC/C=C/C=O [trans-2-hexenal]
- Average Sprout Length ([1]; 12 h exposure): 0 cm/tuber
- External Pit Rating (1-4 scale) ([1]; 12 h exposure): 1.8
- Soft Rot Lesions ([1]; 12 h exposure): 0.6 no/tuber
- Soluble Carbohydrates Fru ([1]; 12 h exposure): 19.5 mg/g dry wt.
- Soluble Carbohydrates Glu ([1]; 12 h exposure): 19.0 mg/g dry wt.
- Soluble Carbohydrates Glu + Fru ([1]; 12 h exposure): 38.5 mg/g dry wt.
- Soluble Carbohydrates Suc ([1]; 12 h exposure): 6.30 mg/g dry wt.
- Sprout Fresh Weight ([1]; 12 h exposure): 0 g/tuber
- Average Sprout Length ([1]; 24 h exposure): 0 cm/tuber
- External Pit Rating (1-4 scale) ([1]; 24 h exposure): 2.2
- Soft Rot Lesions ([1]; 24 h exposure): 0.4 no/tuber
- Soluble Carbohydrates Fru ([1]; 24 h exposure): 17.8 mg/g dry wt.
- Soluble Carbohydrates Glu ([1]; 24 h exposure): 16.5 mg/g dry wt.
- Soluble Carbohydrates Glu + Fru ([1]; 24 h exposure): 34.3 mg/g dry wt.
- Soluble Carbohydrates Suc ([1]; 24 h exposure): 6.28 mg/g dry wt.
- Sprout Fresh Weight ([1]; 24 h exposure): 0 g/tuber
- inhibition of sprout development (in words) [2]: inhibited sprouting in a concentration-dependent manner
